Measured values as given in patent US20250011288A1 (BRISTOL-MYERS SQUIBB COMPANY, priority 2021, published 2025).

The compounds below were run against T1, human RXFP1 (Homo sapiens, UniProt Q9HBX9) (assay: human RXFP1 (hRXFP1) HEK293 cAMP assay (HTRF)). Conditions: HEK293 cells stably expressing human RXFP1, 30 min at room temperature.
T1 construct: expressed in transfected cells
T1 sequence (Q9HBX9 1-757): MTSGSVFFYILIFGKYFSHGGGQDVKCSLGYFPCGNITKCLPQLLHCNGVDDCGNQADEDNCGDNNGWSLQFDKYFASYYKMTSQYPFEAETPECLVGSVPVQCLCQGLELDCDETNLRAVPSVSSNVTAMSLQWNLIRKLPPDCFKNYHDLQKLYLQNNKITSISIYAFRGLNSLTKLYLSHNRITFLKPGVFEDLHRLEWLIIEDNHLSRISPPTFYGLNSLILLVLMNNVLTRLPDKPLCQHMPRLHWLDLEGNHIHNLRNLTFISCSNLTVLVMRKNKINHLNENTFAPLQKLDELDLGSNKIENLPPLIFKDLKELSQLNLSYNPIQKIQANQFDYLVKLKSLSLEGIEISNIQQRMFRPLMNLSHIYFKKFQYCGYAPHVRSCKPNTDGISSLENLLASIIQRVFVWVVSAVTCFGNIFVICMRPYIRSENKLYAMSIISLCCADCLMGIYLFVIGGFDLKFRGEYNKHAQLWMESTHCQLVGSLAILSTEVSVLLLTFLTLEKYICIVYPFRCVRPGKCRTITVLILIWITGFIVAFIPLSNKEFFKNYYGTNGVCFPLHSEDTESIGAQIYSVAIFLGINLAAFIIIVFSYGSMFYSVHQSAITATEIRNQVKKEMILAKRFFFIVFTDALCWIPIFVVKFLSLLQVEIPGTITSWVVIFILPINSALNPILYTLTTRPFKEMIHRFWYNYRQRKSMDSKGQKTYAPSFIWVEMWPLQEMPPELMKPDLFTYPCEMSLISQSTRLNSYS
Type: cell-based
Summary of the method: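 Intracellular cAMP was quantified by HTRF after a 30 min room-temperature exposure of hRXFP1-HEK293 cells (1500/well) to compound at 0.010 nM–50 µM final, 2% DMSO. Buffer was HBSS with 20 mM HEPES, 0.05% BSA and 0.5 mM IBMX; values came from a 4-parameter logistic fit.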
In the case of COc1ncc(C2=NOC3CC(O)CC23)cc1C(=O)N[C@H]1[C@@H](C(=O)Nc2ccc(F)c(C(F)(F)F)c2)[C@H]2CC[C@@H]1/C2=C\C1CCC1 (stereo partly drawn) [Example 117, N-((1R,2R,3S,4R,Z)-7-(cyclobutyl-methylene)-3-((4-fluoro-3-(trifluoromethyl)phenyl)carbamoyl)bicyclo[2.2.1]heptan-2-yl)-5-(5-hydroxy-3a,5,6,6a-tetrahydro-4H-cyclopenta[d]isoxazol-3-yl)-2-methoxynicotinamide], the EC50 is reported as 3.5 nM. COc1ncc(C2=NOC3CC(CO)CC23)cc1C(=O)N[C@H]1[C@@H](C(=O)N[C@H](C)C2(C)CC2(F)F)[C@H]2CC[C@@H]1/C2=C\C(F)(F)F (stereo partly drawn) [Example 118, N-((1R,2R,3S,4R,Z)-3-(((1R)-1-(2,2-difluoro-1-methylcyclopropyl)ethyl)carbamoyl)-7-(2,2,2-trifluoroethylidene)bicyclo[2.2.1]heptan-2-yl)-5-(5-(hydroxymethyl)-3a,5,6,6a-tetrahydro-4H-cyclopenta[d]isoxazol-3-yl)-2-methoxynicotinamide] was tested, and the EC50 was 4 nM. Work on COc1ncc(C2=NOC3COCC23)cc1C(=O)N[C@H]1[C@@H](C(=O)N[C@H](C)C2(C)CC2)[C@H]2CC[C@@H]1/C2=C\c1csc(C(F)(F)F)n1 (stereo partly drawn) [Example 119, 2-methoxy-N-((1R,2R,3S,4R,Z)-3-(((R)-1-(1-methylcyclopropyl)ethyl)carbamoyl)-7-((2-(trifluoromethyl)thiazol-4-yl)methylene)bicyclo[2.2.1]heptan-2-yl)-5-(3a,4,6,6a-tetrahydrofuro[3,4-d]isoxazol-3-yl)nicotinamide] yielded an EC50 of 3.9 nM. With COc1ncc(C2=NOC3CC(CO)CC23)cc1C(=O)N[C@H]1[C@@H](C(=O)Nc2ccc(F)c(C(F)(F)F)c2)[C@H]2CC[C@@H]1/C2=C\c1csc(C)n1 (stereo partly drawn) [Example 120, N-((1R,2R,3S,4R,Z)-3-((4-fluoro-3-(trifluoromethyl)phenyl)carbamoyl)-7-((2-methylthiazol-4-yl)methylene)bicyclo [2.2.1]heptan-2-yl)-5-(5-(hydroxymethyl)-3a,5,6,6a-tetrahydro-4H-cyclopenta[d]isoxazol-3-yl)-2-methoxynicotinamide] the EC50 was 4.8 nM. With COc1ncc(C2=NOC3CC(O)CC23)cc1C(=O)N[C@H]1[C@@H](C(=O)Nc2ccc(F)c(C(F)(F)F)c2)[C@H]2CC[C@@H]1/C2=C\CCC(F)(F)F (stereo partly drawn) [Example 121, N-((1R,2R,3S,4R,Z)-3-((4-fluoro-3-(trifluoromethyl)phenyl)carbamoyl)-7-(4,4,4-trifluorobutylidene)bicyclo[2.2.1]heptan-2-yl)-5-(5-hydroxy-3a,5,6,6a-tetrahydro-4H-cyclopenta[d]isoxazol-3-yl)-2-methoxynicotinamide] the EC50 was 1.3 nM. COc1ncc(C2=NOC3CC(C(O)C(F)(F)F)CC23)cc1C(=O)N[C@H]1[C@@H](C(=O)Nc2ccc(F)c(C(F)(F)F)c2)[C@H]2CC[C@@H]1/C2=C\C1CCC1 (stereo partly drawn) [Example 122, N-((1R,2R,3S,4R,Z)-7-(cyclobutyl-methylene)-3-((4-fluoro-3-(trifluoromethyl)phenyl)carbamoyl)bicyclo[2.2.1]heptan-2-yl)-2-methoxy-5-(5-(2,2,2-trifluoro-1-hydroxyethyl)-3a,5,6,6a-tetrahydro-4H-cyclopenta[d]isoxazol-3-yl)nicotinamide] showed an EC50 of 2.6 nM. COc1ncc(C2=NOC3CC(CO)CC23)cc1C(=O)N[C@H]1[C@@H](C(=O)Nc2ccc(F)c(C(F)(F)F)c2)[C@H]2CC[C@@H]1/C2=C\C1CCCC1 (stereo partly drawn) [Example 123, N-((1R,2R,3S,4R,Z)-7-(cyclopentyl-methylene)-3-((4-fluoro-3-(trifluoromethyl)phenyl)carbamoyl)bicyclo[2.2.1]heptan-2-yl)-5-(5-(hydroxymethyl)-3a,5,6,6a-tetrahydro-4H-cyclopenta[d]isoxazol-3-yl)-2-methoxynicotinamide] gave an EC50 of 3.1 nM.
